In patent publication US8530179B2, “Electrochemical methods of detecting cancer with 4-aminophenyl phosphate” (Ramot at Tel-Aviv University Ltd, priority 2007, dated 2013):

Test system: HT-29 colon cancer cells
Test: Amperometric measurement of induced alkaline phosphatase activity in HT-29 cells on the electrochemical array chip (substrate p-APP, 220 mV)
Assay type: cell-based, human
Details: for induced alkaline phosphatase enzymatic activity (amperometric current): exposed for 96 hours, substrate PAPP, 220 mV
Method: HT-29 human colon cancer cells were grown in DMEM medium in the presence of fetal bovine serum at 37° C. in 95% air, 5% CO2 for 3 days prior to butyrate treatment. Butyrate at different concentrations was added to the HT-29 cell cultures. Concentrations applied were: 0, 0.078, 0.156, 0.3125, 0.625, 1.25, 2.5, 5 and 10 mM. Optimal butyrate concentration, LC50 and viability were calculated accordingly. The measurements were performed in PBS with the intact cells and without additional treatment of the cancer cells such as lysis.
BA (Sigma, Israel) ranging between 0.08-10 mM were introduced to HT-29 colon cancer cells and incubated for 72 h for optimization. BA at a constant concentration of 2.5 mM was applied in all electrochemical experiments. BA derivatives, butyroylmethyl-diethyl phosphate, and pivaloyloxymethyl butyrate, were synthesized as described [Rephaeli A, Zhuk R, Nudelman A, 2000, Drug Develop. Res. Vol 50:379-391]. Butyroylmethyl-diethyl phosphate was solubilized in PBS and pivaloyloxymethyl butyrate in DMSO followed by dilution with medium to a final DMSO concentration of ≦0.1%. The prodrugs were then introduced to the cells at a constant concentration of 50 μM and incubated for 96 h at 37° C. in 95% air, 5% CO2 conditions. Following incubation with the differentiation agents, viable cells were counted by tripa blue exclusion and tested for viability and LC50 calculations. Prior to all electrochemical measurement, cells were centrifuged and diluted in PBS. All measurements were performed in PBS. The influence of BA, pivaloyloxymethyl butyrate and butyroylmethyl-diethyl phosphate were examined by measuring the enzymatic activity of alkaline phosphatase.
Amperometric enzyme measurements were performed with the electrochemical substrate, p-APP. The enzymatic reaction product, aminophenol (p-AP), is oxidized at the gold working electrode at 220 mV and the generated current was measured. Eight-channeled 100 nL volume electrochemical chambers were loaded with HT-29 cancer cells, that were treated with BA or its derivatives. Cells were placed into the electrochemical chambers and the substrate was added to 1 mg/ml final concentration at a total volume of 100 nL. The generated current was measured and the number of cells was counted under the microscope. The correlation between cell number and current density was analyzed.
HT-29 colon cancer cells were exposed for 96 hours to various differentiation therapy agents and the induced alkaline phosphatase activity was measured. […]
In order to further examine the sensitivity of the biochip, increasing numbers of HT-29 colon cancer cells were incubated with butyroylmethyl-diethyl phosphate for different lengths of time. The amount of endogenous alkaline phosphatase was measured using the biochip of the present invention.

CCCC(=O)O [BA, Butyric acid]
induced alkaline phosphatase enzymatic activity (amperometric current) (2.5 mM): induced enzymatic activity of alkaline phosphatase

CCCC(=O)OCOP(=O)(OCC)OCC [butyroylmethyl-diethyl phosphate]
induced alkaline phosphatase enzymatic activity (amperometric current) (50 μM): induced enzymatic activity of alkaline phosphatase | effect on cancer cells (alkaline phosphatase current signal) versus incubation time (eight, seventy eight and ninety six hour treatment, increasing cell numbers): increased as incubation time increased

CCCC(=O)OCOC(=O)C(C)(C)C [pivaloyloxymethyl butyrate]
induced alkaline phosphatase enzymatic activity (amperometric current) (50 μM): did not induce any enzyme activity
